Numbering of substitutions follows the chain as printed. Where two headings read alike, the source gives them in different places.
How the values were obtained:
CYSLTR2^L129Q = experiment: IP1 accumulation assay in mutation dependent melan-a cells; assay type: cell-based, mouse; details: 24-hour treatment
Experimental: (§1) Cells were treated with increasing concentrations of YM-254890 (YM) for 3 hours (top) and 24 hours (bottom). Error bars, s.e.m. from three biological replicates, each with three technical replicates.
(§2) Cell Culture and in vitro analysis. Mutation dependent melan-a cells were generated by transducing cells with cDNAs in MSCV-PURO (retrovirus) and then selecting cells with puromycin (1 μg/ml) for two days. TPA (Sigma-Aldrich, St. Louis, Mo.) was then withdrawn from cultures. Cells with activating mutations (CYSLTR2^L129Q, GNAQ^G48V/R183Q/Q209L, KRAS^G12V, and BRAF^V600E) continued to proliferate over several passages (>2 weeks) and were then validated with qRT-PCR and immunoblots. Vector and WT controls were unable to maintain proliferation after a couple passages upon TPA withdrawal. All cells were cultured in media containing 10% FBS, L-glutamine ([…]), penicillin (100 U/ml), streptomycin (100 μg/ml). Melan-a cells provided by D. Bennett, St. George's Hospital, University of London (Johnson C P, et al., PLoS One. 12(6):1-17 (2017)), were cultured in RPMI supplemented with 200 nM TPA unless otherwise noted. HEK293T (from ATCC, Manassas, Va.) cells were cultured in DMEM-Q and UVM cells were cultured in RPMI. All cells tested negative for mycoplasma. Cell growth assays and YM dose response curves were assayed using CellTiter-glo 2.0 (Promega, Madison, Wis.) at given time points or after five days of incubation with YM and readout on a Glomax Luminometer (Promega, Madison, Wis.). IC50 values were calculated using Prism 7.0 software. Growth assays were compared to day 1 readings and dose response curves were compared to vehicle. Data shown is representative of at least three independent experiments with at least three technical replicates. Dose-response curves and growth assays were analyzed using GraphPad Prism 7.0 software.
(§3) IP1 Accumulation Assay. IP1 concentrations in GNAQ-transfected HEK293T cells, GNAQ-expressing melan-a cells and uveal melanoma cells was measured using a competitive homogenous time resolved fluorescence (HTRF) assay (CisBio, Bedford, Mass.). Briefly, 9,000 transiently transfected-HEK293T cells, 5,000 melan-a cells and 5,000 uveal melanoma cells were seeded in low-volume 384-well plates in 7 μL media for 24 hours prior YM-254890 treatment. Cells were then treated with various concentrations of YM-254890 diluted in the appropriate media at 37° C. for 3 hours or 24 hours. 1 h prior lysis, cells were supplemented with 1× Stimulation Buffer provided by the manufacturer (HEPES 10 mM, CaCl2) 1 mM, MgCl2 0.5 mM, KCl 4.2 mM, NaCl 146 mM, glucose 5.5 mM, LiCl 50 mM, pH 7.4) with 0.2% BSA and 50 mM of LiCl (to prevent IP1 degradation). Following incubation, cells were lysed by adding 3 μL/well of d2-labeled IP1 analogue as the fluorescence acceptor and the Terbium cryptate-labeled anti-IP1 mAb as the fluorescence donor, diluted in the kit-supplied lysis buffer. The plates were incubated overnight at RT and time-resolved fluorescence signals were read using the BioTek Synergy NEO plate reader (BioTek Instruments, Winooski, Vt.) at 620 nm and […]. Results were calculated as a 665 nm/620 nm signal ratio, and IP1 concentrations were interpolated from a standard curve prepared using the supplied IP1 calibrator. Results are shown as IP1 (nM). Dose-response curves and bar graphs were analyzed using GraphPad Prism 7.0 software.

GNAQ^G48V = target: T1, GNAQ^G48V (Homo sapiens, UniProt P50148, G48V); experiment: as above; assay type: cell-based, mouse
T1 construct: host or cells: melan-a (immortalized mouse melanocytes), retroviral transduction with MSCV-Puro
T1 sequence (P50148 1-359 G48V): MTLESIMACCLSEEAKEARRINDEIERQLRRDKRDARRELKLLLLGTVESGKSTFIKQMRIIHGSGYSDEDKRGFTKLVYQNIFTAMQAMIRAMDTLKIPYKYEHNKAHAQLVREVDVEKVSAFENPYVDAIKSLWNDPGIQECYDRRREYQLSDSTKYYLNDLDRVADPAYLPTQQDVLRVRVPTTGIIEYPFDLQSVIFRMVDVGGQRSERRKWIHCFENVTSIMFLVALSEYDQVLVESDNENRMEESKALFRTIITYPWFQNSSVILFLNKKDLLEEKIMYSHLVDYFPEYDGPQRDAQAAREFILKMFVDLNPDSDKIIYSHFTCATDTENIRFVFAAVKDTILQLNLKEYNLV
Experimental: as §1, §2, §3

GNAQ^Q209L = target: T2, GNAQ^Q209L (Homo sapiens, UniProt P50148, Q209L); experiment: as above; assay type: cell-based, mouse
T2 construct: host or cells: melan-a (immortalized mouse melanocytes), retroviral transduction with MSCV-Puro
T2 sequence (P50148 1-359 Q209L): T1 sequence (P50148 1-359 G48V) with V48G, Q209L
Experimental: as §1, §2, §3

GNAQ^R183Q = target: T3, GNAQ^R183Q (Homo sapiens, UniProt P50148, R183Q); experiment: as above; assay type: cell-based, mouse
T3 construct: host or cells: melan-a (immortalized mouse melanocytes), retroviral transduction with MSCV-Puro
T3 sequence (P50148 1-359 R183Q): T1 sequence (P50148 1-359 G48V) with V48G, R183Q
Experimental: as §1, §2, §3

Gαq^Q209L = Gαq^Q209L (Homo sapiens, UniProt P50148, Q209L); details: overexpression systems, literature, cited from earlier work
Sequence of Gαq^Q209L (P50148 whole entry Q209L): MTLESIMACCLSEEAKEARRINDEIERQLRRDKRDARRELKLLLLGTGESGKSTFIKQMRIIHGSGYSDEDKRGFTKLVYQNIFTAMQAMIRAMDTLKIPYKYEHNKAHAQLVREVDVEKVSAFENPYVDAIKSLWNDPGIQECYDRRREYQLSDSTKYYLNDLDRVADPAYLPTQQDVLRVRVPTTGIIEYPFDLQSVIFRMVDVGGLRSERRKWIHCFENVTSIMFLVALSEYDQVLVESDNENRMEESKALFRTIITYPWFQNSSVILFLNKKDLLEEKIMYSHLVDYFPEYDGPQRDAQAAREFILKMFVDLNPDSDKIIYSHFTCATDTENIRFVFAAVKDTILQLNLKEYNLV

Substance: YM-254890
- inhibition of IP1 accumulation (CYSLTR2^L129Q): completely inhibited
- relative sensitivity to YM (IP1 accumulation) (CYSLTR2^L129Q): most sensitive
- inhibition of IP1 accumulation (GNAQ^G48V; 24-hour treatment): completely inhibited
- relative sensitivity to YM (IP1 accumulation) (GNAQ^G48V; 24-hour treatment): most sensitive
- sensitivity of IP1 accumulation after 3 hours versus 24 hours (GNAQ^G48V; 3 hours of treatment): less sensitive
- fold less sensitive than CYSLTR2^L129Q and GNAQ^G48V mutants (IP1 accumulation) (GNAQ^Q209L; 24-hour treatment): approximately 10 fold
- inhibition of IP1 accumulation (GNAQ^Q209L; 24-hour treatment): completely inhibited
- sensitivity of IP1 accumulation after 3 hours versus 24 hours (GNAQ^Q209L; 3 hours of treatment): less sensitive
- inhibition of IP1 accumulation (GNAQ^Q209L; 3 hours of treatment, even at high doses of YM): only partially inhibited
- fold less sensitive than CYSLTR2^L129Q and GNAQ^G48V mutants (IP1 accumulation) (GNAQ^R183Q; 24-hour treatment): approximately 10 fold
- inhibition of IP1 accumulation (GNAQ^R183Q; 24-hour treatment): completely inhibited
- sensitivity of IP1 accumulation after 3 hours versus 24 hours (GNAQ^R183Q; 3 hours of treatment): less sensitive
- inhibition of aberrant Gαq signaling downstream of Gαq^Q209L (Gαq^Q209L): ineffective
- inhibition of aberrant Gαq signaling downstream of Gαq^Q209L (Gαq^Q209L; listed as YM): unable to inhibit

Reference: patent US20210403864A1, “METHODS AND COMPOSITIONS FOR TREATING ACTIVATED G-ALPHA Q MUTANT CANCERS OR MELANOCYTIC MALIGNANCIES” (Memorial Sloan Kettering Cancer Center, priority 2018, published 2021)
